Source: patent US20230233477A1, “Bi2O3 NANOPARTICLES PREPARED BY THE TOP-DOWN ULTRASONICATION ROUTE AS A BROAD-[sequence] ANTIMICROBIAL TO OVERCOME DRUG RESISTANCE IN ANTIBIOTICS” (KENT STATE UNIVERSITY, priority 2022, published 2023)

How the values were obtained:
[1] = test system: PA; format: cell-based, Pseudomonas aeruginosa; conditions: sub-lethal concentration, after 13 days
Procedure: Drug resistance study. The MIC was determined using a broth dilution method. […] The as-prepared bacterial solutions were incubated at 37° C. for 24 h. After incubation, the MIC was determined as the lowest concentration that inhibited visible growth of the tested microorganisms with unaided eyes. This same procedure was done by serial passaging of the bacteria until 30 days. Later on, three types of mutant DSPA were prepared by treating with Ag NPs, ciprofloxacin and meropenem for 15 days.

[2] = test system: DRPA (BAA-2108); test: Checkerboard assay with meropenem against DRPA; format: cell-based; conditions: Pseudomonas aeruginosa, BAA2108, single agent
Procedure: The degree of synergism was determined using a checkerboard assay in a 96-well plate (FIG. 4b). […] Combinations of the two treatments were prepared using the 2-fold dilution method to determine the fractional inhibitory concentration (FIC; Table S2). The FIC index is used to determine whether two treatments are synergistic (χ≤0.5), additive (0.5<χ<4) or antagonistic (χ≥4).^38 Checkerboard assay.

| Compound | MIC increase (fold) [1] | MIC [2] |
| --- | --- | --- |
| O=C(O)c1cn(C2CC2)c2cc(N3CCNCC3)c(F)cc2c1=O [ciprofloxacin] | 32 fold | – |
| C[C@@H](O)[C@H]1C(=O)N2C(C(=O)O)=C(S[C@@H]3CN[C@H](C(=O)N(C)C)C3)[C@H](C)[C@H]12 [meropenem] | – | 2 µg/mL |
